From patent US20140315981A1, “STRATEGIES FOR PREVENTION AND/OR TREATMENT OF DISEASES BASED ON CD40 SILENCING” (FUNDACIO INSTITUT D'INVESTIGACIO BIOMEDICA DE BELLVITGE …, priority 2011, published 2014) come the findings set out here.

Assay type in all cases: in vivo
The subject of assay [1] is NZB/W F1 female mice. Nature of the assay: Proteinuria and renal function, murine lupus nephritis. The following applies: vs. control, FIG. 3.
Procedure: (§1) Treatment was given from six to nine old months. Body weight was determined twice a month. Mice were placed in metabolic cages to collect 24-hour urine specimens before treatment, and again at six, seven and eight months. Blood was obtained from the tail vein at the same intervals. At the end of the follow-up, survivor animals were sacrificed and kidney processed for histological studies.
In assay [2] the test system is NZB/W F1 female mice. Nature of the assay: Survival of NZB/W F1 mice with lupus nephritis under treatment. The following applies: intraperitoneal treatment from six to nine months of age.
Procedure: Animals NZB/W F1 female mice (Charles River, Spain) were used. […] Mice were housed in a constant temperature room with a 12-hour dark/12-hour light cycle, and were given free access to water and a standard laboratory diet.
as §1
Data are expressed as mean+SE. Overall survival was analyzed by the Kaplan-Meier method. […] All P-values were two-tailed, and a P-value <0.05 was considered significant.
For assay [3], the system named is NZB/W F1 female mice. Nature of the assay: Renal immunofluorescence of glomerular IgG and C3 deposition, murine lupus nephritis. The following applies: FIG. 7.
Procedure: Renal immunofluorescence. For analysis of Ig and complement deposition, fluorescent staining of cryosections was used. Five-micrometer cryostat sections were fixed in acetone at −80° C. for 20 minutes, then blocked with 20% normal goat serum and directly stained with FITC-conjugated goat anti-mouse IgG at 1/300 (Sigma-Aldrich). To stain for complement, slides were then sequentially incubated in rat anti-mouse complement C3, at 1/50 (Cedarlane Laboratories Limited), followed by Alexa Fluor 546-conjugated goat anti-rat IgG at 1/1000 (Invitrogen, Molecular Probes). At least 30 glomeruli, visualized and photographed with an immunofluorescence microscope, from each animal were examined in a binded manner. A semiquantitative score of staining intensity and distribution from 0 to 4+ was given, where 0+ denotes no signal; 1+, minimal signal; 2+, low signal; 3+, moderate signal and 4+, strong signal intensity.
The subject of assay [4] is NZB/W F1 female mice. Nature of the assay: Anti-DNA antibodies in serum by ELISA, murine lupus nephritis. The following applies: FIG. 2. How it is done:
Urinary protein concentration was determined by a commercial kit based on the Ponceau method (BayerDiagnostics, Madrid, Spain). Serum creatinine levels (in milligrams per decilitre) were determined by Jaffés method on an autoanalyzer (Beckman Instruments, Palo Alto, Calif.) at the end of the follow-up. Anti-DNA antibodies levels of anti-DNA antibodies were measured before treatment, and subsequently each month and at sacrifice, using a commercially available ELISA kit (Alpha Diagnostic International, San Antonio, Tex., USA) according to manufacturer's instructions (serum diluted 1:100). This kit is based on a purified dsDNA coated microwell plate. Antibodies to dsDNA are directed against the phosphate-deoxyribose backbone of the DNA molecule. Anti-dsDNA from serum samples bind to extracted nuclear antigen immobilized on microtiter wells. Anti-mouse IgG-HRP conjugate is added, and the colour developed by chromogenic substrate addition. The enzymatic reaction (blue colour) is directly proportional to the amount of the anti-dsDNA in the sample. Kits contain positive and negative controls, and anti-DNA antibodies are estimated in a semi-quantitative way according to the optical density (o.d. 450).
(In general: ELISA stands for enzyme-linked immunosorbent assay.)

Assay [5] has as its system NZB/W F1 female mice. Nature of the assay: Spleen weight and splenocyte B cell populations, murine lupus nephritis. The following applies: FIG. 9.

As to `O=P1(N(CCCl)CCCl)NCCCO1` (centres unmarked) [CYP, cyclophosphamide], the proteinuria entry in assay [1] is on record as “significantly lower”. Further, the “Cumulative survival analyzed by the Kaplan-Meier method” value in assay [2] is recorded as 100%. For the same compound, the “glomerular deposition of C3” value in assay [3] is reported as “more effective in reducing C3 deposition than costimulatory blockade”. Moreover, in assay [4], the anti-dsDNA titers result is given as “lower”. The “proportion of B cells in splenocytes” value in assay [5] is given as “markedly reduced”.
